Here are results for three compounds from patent publication US20160362416A1, “ANTIVIRAL COMPOUNDS” (Gilead Sciences, Inc., priority 2012, published 2016).

For experiment [1], the system named is stable HCV 1b RLuc replicon cells (genotype 1b Con1 replicon). The experiment is described as follows: HCV genotype 1b RLuc replicon reporter assay. The format is cell-based. The note with it: Hepatitis C virus; stable genotype 1b Con1 RLuc replicon cells, 72 hours. In outline:
(§1)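 Stable 1b Con1 RLuc replicon cells, or Huh-Lunet cells transiently transfected with chimeric replicons (Con1 backbone carrying 3a S52 or 4a ED43 NS5A; JFH-1 backbone carrying 2b MD2b-1 NS5A, M31), treated with 3-fold dilutions for 72 h. Renilla luciferase read after lysis; EC50 by non-linear regression.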
For orientation: In antiviral work, replicon cells carry a viral genome segment that copies itself.

Experiment [2] relates to stable HCV 1a RLuc replicon cells (genotype 1a H77 replicon). The experiment in a line: HCV genotype 1a RLuc replicon reporter assay. The format is cell-based. The settings on record: Hepatitis C virus; stable genotype 1a H77 RLuc replicon cells, 72 hours.
The subject of experiment [3] is stable HCV 2a JFH-1 Rluc replicon cells (L31 present in NS5A). The experiment in a line: HCV genotype 2a JFH-1 RLuc replicon reporter assay. The format is cell-based. The note with it: Hepatitis C virus, 72 h, read-out: 2a JFH (nM).
Experiment [4] concerns NS5A chimeric genotype 2a JFH-1 replicon with genotype 2a J6 strain NS5A gene (M31). The experiment in a line: HCV genotype 2a J6 NS5A chimeric replicon assay, transient (t). The note with it: Hepatitis C virus, 72 h, read-out: 2a J6 (t) (nM). The format is cell-based.
In experiment [5] the test system is NS5A chimeric genotype 2a JFH-1 replicon with genotype 2b MD2b-1 strain NS5A gene (M31). The experiment in a line: HCV genotype 2b NS5A chimeric replicon assay, transient (t). Format: cell-based. The note with it: Hepatitis C virus, 72 h, read-out: 2b (t) (nM). The protocol:
Evaluation of cell-based anti-HCV activity: Antiviral potency (EC50) was determined using a Renilla luciferase (RLuc)-based HCV replicon reporter assay. To perform the assay for genotype 1 and 2a JFH-1, stable HCV 1a RLuc replicon cells (harboring a dicistronic genotype 1a H77 replicon that encodes a RLuc reporter), stable HCV lb RLuc replicon cells (harboring a dicistronic genotype 1b Conl replicon that encodes a RLuc reporter), or stable HCV 2a JFH-1 Rluc replicon cells (harboring a dicistronic genotype 2a JFH-1 replicon that encodes a RLuc reporter; with L31 present in NS5A) were dispensed into 384-well plates for EC50 assays. To perform the assay for genotype 2a (with M31 present in NS5A) or 2b, NS5A chimeric genotype 2a JFH-1 replicons that encodes a RLuc-Neo reporter and either genotype 2a J6 strain NS5A gene or genotype 2b MD2b-1 strain NS5A gene (both with M31 present) respectively, were either transiently transfected (t) into Huh-Lunet cells or were established as stably replicating replicon cells (s) is provided. Either cells were dispensed into 384-well plates for EC50 assays. To perform the assay for genotype 3 and 4, NS5A chimeric genotype 1b Conl replicons that encodes a Pi-RLuc reporter and either genotype 3a S52 strain NS5A gene or genotype 4a ED43 strain NS5A gene respectively, were transiently transfected (t) into Huh-Lunet cells, which were subsequently dispensed into 384-well plates. Compounds were dissolved in DMSO at a concentration of 10 mM and diluted in DMSO either manually or using an automated pipeting instrument. Serially 3-fold diluted compounds were either manually mixed with cell culture media and added to the seeded cells or directly added to the cells using an automated instrument. DMSO was used as a negative (solvent; no inhibition) control, and the protease inhibitor ITMN-191 was included at a concentration >100×EC50 as a positive control. 72 hours later, cells were lysed and Renilla luciferase activity quantified as recommended by the manufacturer (Promega-Madison, Wis.). Non-linear regression was performed to calculate EC50 values.

Experiment [6] deals with NS5A chimeric genotype 1b Con1 replicon with genotype 3a S52 strain NS5A gene. The experiment in a line: HCV genotype 3a NS5A chimeric replicon assay. Format: cell-based. The settings on record: Hepatitis C virus, 72 h, read-out: 3a (nM). In outline: as §1
In experiment [7] the test system is NS5A chimeric genotype 1b Con1 replicon with genotype 4a ED43 strain NS5A gene. The experiment is described as follows: HCV genotype 4a NS5A chimeric replicon assay. The format is cell-based. The note with it: Hepatitis C virus, 72 h, read-out: 4a (s) (nM).
Experiment [8] relates to Y93H in genotype 1a NS5A replicon. The experiment is described as follows: Resistance mutant replicon assay, genotype 1a NS5A Y93H. The note with it: Hepatitis C virus, read-out: 1a Y93H (nM). The format is cell-based, HCV. In outline:
(§2)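 Mutant NS5A replicons (1a or 1b Pi-RLuc backbone; 3a NS5A in chimeric 1b) made by site-directed mutagenesis, RNA transiently transfected into Huh-7-derived cured-51 cells. Cells treated with 3-fold serial dilutions for 72 h; Renilla luciferase read; EC50 by non-linear regression.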

The subject of experiment [9] is Y93N in genotype 1a NS5A replicon. The experiment is described as follows: Resistance mutant replicon assay, genotype 1a NS5A Y93N. Format: cell-based, HCV. The note with it: Hepatitis C virus, read-out: 1a Y93N (nM). A digest of the protocol:
as §2

Experiment [10] has as its system Y93H in genotype 3a NS5A replicon. The experiment is described as follows: Resistance mutant replicon assay, genotype 3a NS5A Y93H. Format: cell-based, HCV. The settings on record: Hepatitis C virus, read-out: 3a Y93H (nM). In outline: as §2

Regarding `COC(=O)N[C@H](C(=O)N1[C@@H](C)CC[C@H]1c1ncc(-c2ccc3c(c2)COc2cc4c(ccc5nc([C@@H]6C[C@H](C)CN6C(=O)[C@@H](NC(=O)OC)C6C[C@@H](C)O[C@H](C)C6)[nH]c54)cc2-3)[nH]1)C(C)C` (stereo partly drawn) [Example AV, methyl {(2S)-1-[(2S,5S)-2-(5-{2-[(2S,4S)-1-{(2S)-2-[(2R,6R)-2,6-dimethyltetrahydro-2H-pyran-4-yl]-2-[(methoxycarbonyl)amino]acetyl}-4-methylpyrrolidin-2-yl]-1,11-dihydroisochromeno[4′,3′:6,7]naphtho[1,2-d]imidazol-9-yl}-1H-imidazol-2-yl)-5-methylpyrrolidin-1-yl]-3-methyl-1-oxobutan-2-yl}carbamate], the EC50 in experiment [1] was 36 pM; in experiment [2] it was 36 pM; in experiment [3] it was 0.011 nM; in experiment [4], 0.008 nM; in experiment [5], 0.015 nM; in experiment [6], 0.029 nM. The EC50 in experiment [7] is 0.013 nM; in experiment [8], 0.14 nM; in [9], 1.05 nM; in experiment [10] it was 2.39 nM.

Take `COC(=O)N[C@H](C(=O)N1[C@@H](C)CC[C@H]1c1ncc(-c2ccc3c(c2)COc2cc4c(ccc5nc([C@@H]6CCCN6C(=O)[C@@H](NC(=O)OC)C6C[C@@H](C)O[C@H](C)C6)[nH]c54)cc2-3)[nH]1)C(C)C` (stereo partly drawn) [Example AW, methyl {(2S)-1-[(2S,5S)-2-(5-{2-[(2S)-1-{(2S)-2-[(2R,6R)-2,6-dimethyltetrahydro-2H-pyran-4-yl]-2-[(methoxycarbonyl)amino]acetyl}pyrrolidin-2-yl]-1,11-dihydroisochromeno[4′,3′:6,7]naphtho[1,2-d]imidazol-9-yl}-1H-imidazol-2-yl)-5-methylpyrrolidin-1-yl]-3-methyl-1-oxobutan-2-yl}carbamate]: the EC50 in experiment [1] worked out at 70 pM; in experiment [2], 29 pM; in experiment [3], 0.011 nM; in experiment [4], 0.021 nM; in [5], 0.029 nM; in experiment [6] it was 0.015 nM. For the same compound, the EC50 was determined as 0.008 nM in [7], 0.704 nM in [8], 1.47 nM in experiment [9] and 1.51 nM in experiment [10].

Turning to `COC(=O)N[C@H](C(=O)N1[C@H](c2ncc(-c3ccc4c(c3)COc3cc5c(ccc6nc([C@@H]7CC[C@H](C)N7C(=O)[C@@H](NC(=O)OC)C7C[C@@H](C)O[C@H](C)C7)[nH]c65)cc3-4)[nH]2)C[C@@H]2CCC[C@@H]21)C(C)C` (stereo partly drawn) [Example AY, methyl {(2S)-1-[(2S,3aS,6aS)-2-(5-{2-[(2S,5S)-1-{(2S)-2-[(2R,6R)-2,6-dimethyltetrahydro-2H-pyran-4-yl]-2-[(methoxycarbonyl)amino]acetyl}-5-methylpyrrolidin-2-yl]-1,11-dihydroisochromeno[4′,3′:6,7]naphtho[1,2-d]imidazol-9-yl}-1H-imidazol-2-yl)hexahydrocyclopenta[b]pyrrol-1(2H)-yl]-3-methyl-1-oxobutan-2-yl}carbamate], the EC50 in [1] turned out to be 28 pM; in experiment [2], 27 pM; in experiment [3] it was 0.018 nM; in [4], 0.013 nM; in experiment [5], 0.03 nM; in experiment [6] it was 0.023 nM. In addition, the EC50 was determined as 0.011 nM in [7], 0.531 nM in [8], 1.18 nM in [9] and 8.48 nM in [10].
